The text below walks through data of PubChem BioAssay (NCI).

Holding throughout (test): NCI-60 cell line screen, 48 h
The subject of assay [1] is SF-295 CNS.
The test system of assay [2] is NCI-H522 lung.
For assay [3], the system named is UACC-257 melanoma.
The test system of assay [4] is K-562 leukemia.
The subject of assay [5] is MOLT-4 leukemia.
Assay [6] deals with TK-10 renal.
Assay [7] deals with EKVX NSCLC.
In assay [8] the test system is HCC-2998 colon.
The subject of assay [9] is IGROV1 ovarian.
Assay [10] deals with T-47D breast.

Each structure is given as a SMILES string.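 Following 48 hours of exposure in 96-well plates, responses at five concentrations were used to interpolate endpoints linearly. GI50 = concentration required for 50% inhibition of growth. TGI is the concentration that stops growth completely.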 Some results are limits rather than exact numbers.

Take `COc1ccc(-c2nc3ccc(-c4nc5ccc(N6CCN(c7ccccc7)CC6)cc5[nH]4)cc3[nH]2)cc1OC`: the GI50 in [1] was 1.73 µM; in assay [2], 1.81 µM; in assay [3] it was 2.05 µM; in assay [4], 0.366 µM; in [5], 1.37 µM; in [6], 2.2 µM. The GI50 in [7] was 2.29 µM; in assay [8], 1.72 µM; in assay [9] it was 1.65 µM; in assay [10], 1.68 µM. The TGI worked out at 4.02 µM in [1]; 4.15 µM in assay [2]; 4.4 µM in assay [3]; 2.92 µM in assay [4]; 6.47 µM in assay [5]; 4.42 µM in assay [6]. Further, the TGI amounted to 5.07 µM in assay [7], 3.34 µM in assay [8], 3.44 µM in [9] and 5.19 µM in [10].
On to `CCCN1C(=O)N(CCC)C2C1NC(=S)N2/N=C/C=C/c1ccccc1OC` (configuration not stated), for which the GI50 in assay [1] was 0.487 µM; in [2], 0.336 µM; in [3] it was 20.3 µM; in assay [4] it was 0.41 µM; in assay [5], 0.576 µM; in [6] it was 12.6 µM. For the same molecule, the GI50 in assay [7] is 2.22 µM; in assay [8], 2.36 µM; in assay [9], 0.831 µM; in assay [10], 0.376 µM. Besides, the TGI in [1] is 29.4 µM; in [2] it was 12.7 µM; in [3] it was more than 100 µM; in assay [4], more than 100 µM; in assay [5] it was more than 66.2 µM; in assay [6] it was more than 100 µM. The TGI was more than 100 µM in [7], 65.1 µM in assay [8], more than 100 µM in assay [9] and 37 µM in [10].
As to `Cc1nn(-c2ccc(Cl)cc2)c2nc3c(nc12)C(=O)c1ccccc1-3`, the GI50 in assay [1], in assay [2], in assay [3], in assay [4], in [5] and in assay [7] was more than 100 µM each time. Besides, the GI50 is more than 100 µM in assay [8], more than 100 µM in [9] and 17.4 µM in [10]. Besides, the TGI in assay [1], in assay [2], in [3], in assay [4], in assay [5] and in assay [7] was more than 100 µM in each case. Further, the TGI in assay [8] is more than 100 µM; in [9], more than 100 µM; in assay [10] it was 65.6 µM.
Take `Cn1cc(C2=C(c3cn(CCCCO)c4ccccc34)C(=O)NC2=O)c2ccccc21`: the GI50 was 5.9 µM in assay [1]; 10.4 µM in assay [2]; 19.8 µM in assay [3]; 9.75 µM in assay [4]; 7.68 µM in [5]; 10.1 µM in assay [6]. Besides, the results for the GI50 in assay [8], in [9] and in assay [10] were 16.3 µM, 12.2 µM and 9.64 µM, respectively. The TGI was more than 25 µM in assay [1]; more than 25 µM in [2]; more than 25 µM in assay [3]; more than 25 µM in [4]; more than 22 µM in assay [5]; more than 25 µM in assay [6]. Besides, the TGI was more than 25 µM in assay [8], more than 22.9 µM in [9] and 24.8 µM in assay [10].
As for `COc1ccc2[nH]cc(C3(c4c[nH]c5ccc(OC)cc45)C(=O)Nc4ccc(F)cc43)c2c1`, the GI50 is 1.79 µM in assay [1]; 1.81 µM in [2]; 2.2 µM in assay [3]; 2.24 µM in assay [4]; 1.97 µM in assay [5]; 2.35 µM in [7]. For the same molecule, the values for the GI50 in [8], in assay [9] and in assay [10] were 2.93 µM, 2.64 µM and 3.04 µM, respectively. Further, the TGI in [1] turned out to be 4.85 µM; in [2], 3.77 µM; in [3], 6.23 µM; in assay [4] it was 5.78 µM; in assay [5], 6.08 µM; in assay [7], 8.07 µM. The TGI was 8.97 µM in [8], 12.6 µM in [9] and 14.9 µM in assay [10].
For the molecule `O=C(c1ccccc1Br)C(F)(F)F`, the TGI in [1], in [2], in assay [4], in [5], in [6] and in assay [7] was more than 100 µM in each case. Besides, the TGI in assay [8], in assay [9] and in assay [10] was more than 100 µM each time.
As to `Oc1cccnc1[Se]`, the TGI was 97.3 µM in assay [1]; more than 100 µM in assay [2]; more than 100 µM in assay [3]; more than 100 µM in [4]; more than 100 µM in [5]; more than 100 µM in assay [6]. Also, the TGI in [7] was 80.2 µM; in assay [9] it was more than 100 µM; in assay [10], more than 100 µM.
